# In ChEMBL document CHEMBL4825757, “Optimization of 4,6-Disubstituted Pyrido[3,2-d]pyrimidines as Dual MNK/PIM Inhibitors to Inhibit Leukemia Cell Growth” (J Med Chem, 2021):
# The source made the active and inactive calls. The rule behind the calls is not given here.
# Legend:
# MOLM-13 [1] = assay: Antitumor activity against human MOLM-13 cells xenografted in NOD/SCID mouse assessed as tumor growth inhibition at 5 mg/kg, ip daily for 2 weeks; assay type: functional; settings: MOLM-13, ip, 336 h, read-out: TGI
# MOLM-13 [2] = assay: Antitumor activity against human MOLM-13 cells xenografted in NOD/SCID mouse assessed as decrease in BAD phosphorylation at 10 mg/kg, ip daily for 2 weeks by western blot analysis; assay type: functional, organism-based
# [3] = target: Serine/threonine-protein kinase pim-3 (Homo sapiens, UniProt Q86V86); assay: Inhibition of wild-type human partial length PIM3 (G16 to A317 residues) expressed in bacterial expression system at 1 uM by Kinomescan method relative to control
# [4] = target: MAP kinase-interacting serine/threonine-protein kinase 1/2 (Homo sapiens) (UniProt Q9HBH9+Q9BUB5); assay: Inhibition of MNK1/MNK2 in human K562 cells assessed as reduction in eIF4E phosphorylation at 1 to 2 uM incubated for 24 hrs by western blot analysis; assay type: cell-based; settings: dose 1-2 µM
# K562 = assay: Downregulation of mcl-1 levels in human K562 cells at 1 to 2 uM incubated for 24 hrs by western blot analysis; assay type: functional, cell-based; settings: dose 1-2 µM
structure (smiles),measurement,setting,value
CC(C)Oc1cc(F)ccc1Nc1ncnc2ccc(-c3ccc(C(=O)N4CCNCC4)cc3)nc12,inhibition in vivo at 5 mg/kg,MOLM-13 [1],41.2%
same,Activity,MOLM-13 [2],Active
same,inhibition,[3],90%
same,inhibition,[4],Dose-Dependent Effect
same,Activity,K562,Active
